Reference: patent US20260355332A1, “ANTIBODY-DRUG CONJUGATE, AND PREPARATION METHOD THEREFOR AND USE THEREOF” (MEDILINK THERAPEUTICS (SUZHOU) CO., LTD., priority 2022, published 2026)
“Also recorded” adds a separate entry of the source.

System: tumor cells
Assay: Assay 2: inhibitory activity of bioactive molecules on tumor cells (CCK8), overall
Format: cell-based
Conditions: Example 6.2; multiple tumor cell lines
Procedure: Firstly, tumor cells NUCG-4, PC-9, HT29, NCI-H358, KYSE520, A431, and A549 were cultured. The bioactive molecules or fragments of the present disclosure were co-cultured with the tumor cells, and then a CCK8 reagent (Dojindo China Co., Ltd., Cat: CKO4, Lot: JJ744) was added. Readings were taken using a microplate reader (manufacturer: Molecular Devices, model: SpectraMax M2) (detection wavelength: 450 nm) to determine the activity of dehydrogenase in the mitochondria, so as to evaluate the inhibitory effects of the bioactive molecules on cell proliferation.
The in vitro cell activity was assayed as follows: Tumor cells were digested by a conventional method using trypsin, collected in a tube, counted, resuspended in the corresponding assay medium (containing 2% FBS), and added to a 96-well plate at 5000-10000 cells/well. Bioactive molecules diluted with DMSO (starting at a concentration of 10 μM, with a 3-fold dilution (12 concentration gradients)) were added to the 96-well plate at 100 μL/well, and the plate was incubated at 37° C. with 5% CO2 for 3-4 days. Subsequently, 20 μL of CCK8 reagent was added to each well, and the mixture was allowed to react for 2-6 h. Readings were then taken using a microplate reader (detection wavelength: 450 nm).

Row | Structure (SMILES) | tumor cell-killing effect (in words)
1 | CC[C@@]1(O)C(=O)OCc2c1cc1n(c2=O)Cc2c-1nc1cc3c(cc1c2CCCO)OCO3 [Example A1.9, (S)-7-ethyl-7-hydroxy-14-(3-hydroxypropyl)-10,13-dihydro-11H-[1,3]dioxolo[4,5-g]pyrano[3′,4′:6,7]indolizino[1,2-b]quinoline-8,11(7H)-dione] | had tumor cell-killing effects; also recorded: stronger tumor-killing effect than Dxd in multiple tumor cell lines
2 | CC[C@@]1(O)C(=O)OCc2c1cc1n(c2=O)Cc2c-1nc1cc3c(cc1c2CCCOCNC(=O)CN)OCO3 [Example B1.14, (S)-2-amino-N-((3-(7-ethyl-7-hydroxy-8,11-dioxo-7,8,11,13-tetrahydro-10H-[1,3]dioxolo[4,5-g]pyrano[3′,4′:6,7]indolizino[1,2-b]quinolin-14-yl)propoxy)methyl)acetamide] | had tumor cell-killing effects
